Laboratory results: paper PMC7796304, “Nephrotoxic Potential of Putative 3,5-Dichloroaniline (3,5-DCA) Metabolites and Biotransformation of 3,5-DCA in Isolated Kidney Cells from Fischer 344 Rats” (International Journal of Molecular Sciences, 2020)

Experiments:
[1] = test system: isolated kidney cells (IKC); set-up: method as in PMID 26808022; details: 90 min exposure; cited from earlier work
kidney = details: cited from earlier work
[2] = set-up: method as in PMID 26808022; details: calculated, Fischer 344 rat; cited from earlier work
[3] = test system: isolated kidney cells (IKC); set-up: method as in PMID 26808022; details: cited from earlier work
[4] = test system: isolated kidney cells (IKC); experiment: 3,5-DCA metabolism by IKC, HPLC of media and cells; details: for free aminochlorophenol after arylsulfatase or β-glucuronidase treatment of media or cell lysates: 45 or 90 min
Experimental: At the end of the incubation period, 1.0 mL samples were collected, and media and cells separated by centrifugation. The pelleted cells were washed with KH buffer (no bovine serum albumin), and the rinse was added to the media. Cells were lysed via sonication and protein was precipitated by methanol (1.0 mL) addition to all samples. Samples were centrifuged (3000 g; 10 min, 4 °C) and the supernatant filtered through a 0.45 µ syringe filter and stored at −20 °C until analyzed by HPLC as described below.
To determine if sulfate or glucuronide conjugates were formed, in some experiments, media and cell supernatant fractions obtained as described above were treated with β-glucuronidase (6500 units/mL, final concentration) or arylsulfatase (200 units/mL, final concentration) + saccaharolactone (20 mM, final concentration) for 18 h (37 °C) in 0.1 M acetate buffer (pH 5.0) to hydrolyze any glucuronide or sulfate conjugates, respectively, that were formed [26]. Hydrolysis was stopped by the addition of cold methanol (2.4 mL). The fractions were then filtered and stored until analyzed as described above.
Chromatograms were collected and integrated using Empower 3 software (Waters Co., Milford, MA, USA). A Waters X Select HSS T3 C18 column (3.5 µm; 4.6 × 150 mm^2) fitted with a Waters XSelect HSS T3 VanGuard Cartridge (3.5 µm; 3.9 × 5 mm^2) was used for separation of compounds. The mobile phase consisted of 50:50 methanol:water with a flow rate of 0.75 mL/min. Standard curves, limits of detection, and extraction coefficients were determined for 3,5-DCA and putative metabolites. Extraction coefficients were determined by comparing the integration of a 1.0 mM 3,5-DCA or a metabolite sample that had undergone sample processing (i.e., the addition of methanol and centrifugation) to that of a unprocessed 1.0 mM 3,5-DCA or metabolite sample.

[5] = test system: isolated kidney cells (IKC); experiment: Effect of DEDTCA pretreatment on 3,5-DCA metabolism in IKC; details: 90 min; for Percent of Dose, Cells / Percent of Dose, Media / detection as 3,5-DCA metabolite in media and cells: 3,5-DCA 1.0 mM; for Percent of Dose, Cells / Percent of Dose, Media: N = 4, mean ± SE; for detection as 3,5-DCA metabolite in media and cells: DEDTCA experiment
Experimental: In a separate experiment, cells were pretreated with diethyldithiocarbamic acid (DEDTCA, 0.1 mM, 30 min pretreatment), a CYP2C inhibitor, before 3,5-DCA addition to determine which metabolites were decreased with DEDTCA pretreatment. Following the 90 min incubation period, cells and media were treated and stored as described above for the determination of 3,5-DCA concentrations and the concentrations of 3,5-DCA metabolites formed.
Samples (75 µL) of media and lysed IKC were analyzed on a Waters Alliance e2695 HPLC system (Waters Co., Milford, MA, USA), utilizing a Waters 2489 variable UV/Vis detector at 254 nM. Chromatograms were collected and integrated using Empower 3 software (Waters Co., Milford, MA, USA). A Waters X Select HSS T3 C18 column (3.5 µm; 4.6 × 150 mm^2) fitted with a Waters XSelect HSS T3 VanGuard Cartridge (3.5 µm; 3.9 × 5 mm^2) was used for separation of compounds. The mobile phase consisted of 50:50 methanol:water with a flow rate of 0.75 mL/min. Standard curves, limits of detection, and extraction coefficients were determined for 3,5-DCA and putative metabolites. Extraction coefficients were determined by comparing the integration of a 1.0 mM 3,5-DCA or a metabolite sample that had undergone sample processing (i.e., the addition of methanol and centrifugation) to that of a unprocessed 1.0 mM 3,5-DCA or metabolite sample.

[6] = test system: isolated kidney cells (IKC); experiment: LDH release cytotoxicity, time and concentration course, in isolated kidney cells; details: for nephrotoxic potential among the metabolites tested / LDH release (marker of cytotoxicity): 0-1.5 mM; for nephrotoxic potential among the metabolites tested: up to 90 min; for LDH release (marker of cytotoxicity): 60 or 90 min
[7] = test system: isolated kidney cells (IKC); experiment: Pretreatment with antioxidants or enzyme inhibitors before 3,5-DCNB, LDH release in IKC; details: 1.0 mM 3,5-DCNB, 60 min, pretreatment concentrations per Table 4
[8] = test system: isolated kidney cells (IKC); details: 0.5 mM 3,5-DCPHA, 60 min, pretreatment concentrations per Table 4
[9] = test system: rat renal cortical slices; set-up: method as in PMID 8023337; details: cited from earlier work
[10] = test system: rat renal cortical slices; set-up: method as in PMID 18243470; details: 2 h exposure; cited from earlier work
[11] = test system: isolated kidney cells (IKC); set-up: method as in PMID 26808022; details: cited from earlier work; remark: listed apart in the source
renal cortical slices = details: cited from earlier work
[12] = IKC incubated with 0.5 mM 3,5-DCA, 90 min, N = 3, mean ± SE
[13] = IKC incubated with 1.0 mM 3,5-DCA, 90 min, N = 4, mean ± SE
[14] = +DEDTCA (0.1 mM, 30 min pretreatment)
[15] = IKC incubated with 1.0 mM 3,5-DCA

Q: With `Nc1cc(Cl)cc(Cl)c1` [3,5-DCA, 3,5-dichloroaniline] as the compound, how does the “concentration leading to increased LDH release” value [1] read?
A: ≥ 1000 µM

Q: And the “renal effects of in vivo exposure” value (kidney; Sprague–Dawley or Fischer 344 rats)?
A: elevated blood urea nitrogen (BUN) concentration, decreased organic ion transport in proximal tubular cells, decreased kidney weight, proteinuria, and hematuria

Q: And the “maximum blood level from a nephrotoxic dose” value [2]?
A: ~ 1.25 mM

Q: And the “reduced and total glutathione levels” value [3]?
A: both reduced

Q: And the “Percentage of Dose, Cells” value [4, 12]?
A: 6.82 ± 3.33%

Q: And the “Percentage of Dose, Media” value [4, 12]?
A: 89.31 ± 6.32%

Q: And the “Percentage of Dose, Cells” value [4, 13]?
A: 13.19 ± 2.12%

Q: And the “Percentage of Dose, Media” value [4, 13]?
A: 87.13 ± 4.56%

Q: And the “fraction of 3,5-DCA metabolized to 3,5-DCAA and 3,5-DCNB” value ([4]; IKC, 0.5 or 1.0 mM, 90 min)?
A: Less than 5%

Q: What about the “Percent of Dose, Cells” value [5, 14] of the same compound?
A: 14.67 ± 1.78%

Q: What about the “Percent of Dose, Media” value [5, 14] of the same compound?
A: 91.14 ± 3.04%

Q: And the “Percent of Dose, Cells” value ([5]; −DEDTCA)?
A: 16.01 ± 2.02%

Q: What about the “Percent of Dose, Media” value ([5]; −DEDTCA) of the same compound?
A: 89.43 ± 5.66%

Q: And the “concentration that induces cytotoxicity (increased LDH release)” value ([6]; 90 min)?
A: 1000 µM

Q: And the non-cytotoxic concentration ([6]; 90 min)?
A: 0.5 mM

Q: For `CC(C)(C(=O)c1cccnc1)c1cccnc1` [metyrapone], which “effect of pretreatment on 3,5-DCNB-induced cytotoxicity (LDH release)” value [7] is on record?
A: significantly attenuated

Q: For `CCCCOCCOCCOCc1cc2c(cc1CCC)OCO2` [piperonyl butoxide], which “effect of pretreatment on 3,5-DCNB-induced cytotoxicity (LDH release)” value [7] is on record?
A: significantly attenuated

Q: Which results are given for `CC(=O)N[C@@H](CS)C(=O)O` [N-acetyl-L-cysteine]?
A: effect of pretreatment on 3,5-DCPHA-induced cytotoxicity (LDH release) [8]: partially attenuated; effect of pretreatment on 3,5-DCNB-induced cytotoxicity (LDH release) [7]: significantly attenuated

Q: Which results are given for `Nc1cc(Cl)c(O)c(Cl)c1` [4-A-2,6-DCP, 4-amino-2,6-dichlorophenol]?
A: concentration reducing uptake of p-aminohippurate (PAH) [9]: 5 µM; concentration reducing uptake of tetraethylammonium (TEA) [9]: 50 µM; concentration increasing LDH release [10]: ≥ 50 µM; nephrotoxicity in vivo (kidney; male Fischer 344 rats, 0.38 mmol/kg, i.p.): marked nephrotoxicity; free aminochlorophenol after arylsulfatase or β-glucuronidase treatment of media or cell lysates [4, 15]: did not reveal any free 2-A-4,6-DCP or 4-A-2,6-DCP; detection as 3,5-DCA metabolite in media and cells [5]: no 2-A-4,6-DCP, 4-A-2,6-DCP or 3,5-DCPHA detected; concentration required to increase LDH release ([6]; 90 min exposure, albumin in medium, no reference given): ≥ 250 µM

Q: With `CCN(CC)C(=S)S` [DEDTCA, diethyldithiocarbamic acid, reference compound] as the compound, how does the “effect of inhibitor pretreatment on 3,5-DCA cytotoxicity” value [11] read?
A: markedly reduced 3,5-DCA cytotoxicity

Q: What about the “effect of pretreatment on 3,5-DCA metabolite formation” value ([5]; DEDTCA 0.1 mM, then 3,5-DCA 1.0 mM) of the same compound?
A: formation of 3,5-DCAA and 3,5-DCNB were reduced

Q: Which “nephrotoxic potential among dichloronitrobenzenes” value (renal cortical slices) does the source give for `O=[N+]([O-])c1cc(Cl)cc(Cl)c1` [3,5-DCNB, 3,5-dichloronitrobenzene] here?
A: least potent nephrotoxicant among the dichloronitrobenzenes

Q: What about the “Percentage of Dose, Cells” value [4, 12] of the same compound?
A: 0.41 ^ %

Q: And the “Percentage of Dose, Media” value [4, 12]?
A: 2.80 ^ %

Q: And the “Percentage of Dose, Cells” value [4, 13]?
A: 0.34 ± 0.19 %

Q: What about the “Percentage of Dose, Media” value [4, 13] of the same compound?
A: 1.18 ± 0.57 %

Q: What about the “Percent of Dose, Cells” value [5, 14] of the same compound?
A: 0.06 ^ %

Q: What about the “Percent of Dose, Media” value [5, 14] of the same compound?
A: 0.09 ^ %

Q: What about the “Percent of Dose, Cells” value ([5]; −DEDTCA) of the same compound?
A: 0.13 ^ %

Q: What about the “Percent of Dose, Media” value ([5]; −DEDTCA) of the same compound?
A: 0.31 ± 0.19 %

Q: What about the “nephrotoxic potential among the metabolites tested” value [6] of the same compound?
A: intermediate in nephrotoxic potential

Q: And the “concentration giving significant increase in LDH release” value ([6]; 90 min exposure)?
A: ≥ 1000 µM

Q: Which “effect of pretreatment on 3,5-DCNB-induced cytotoxicity (LDH release)” value [7] does the source give for `COc1ccc2c(c1)c(CC(=O)O)c(C)n2C(=O)c1ccc(Cl)cc1` [Indomethacin] here?
A: tended to reduce 3,5-DCNB-induced LDH release but did not reach a significant difference

Q: For `O=C(O)CC(S)C(=O)O` (stereo not shown) [mercaptosuccinate], which “effect of pretreatment on 3,5-DCNB-induced cytotoxicity (LDH release)” value [7] is on record?
A: significantly attenuated

Q: With `Cc1c(C)c2c(c(C)c1O)CC[C@@](C)(CCC[C@H](C)CCC[C@H](C)CCCC(C)C)O2` [α-tocopherol] as the compound, how does the “effect of pretreatment on 3,5-DCNB-induced cytotoxicity (LDH release)” value [7] read?
A: significantly attenuated

Q: With `CC(=O)Nc1cc(Cl)cc(Cl)c1` [3,5-DCAA, 3,5-dichloroacetanilide] as the compound, how does the “Percentage of Dose, Cells” value [4, 12] read?
A: 0.07 ^ %

Q: What about the “Percentage of Dose, Media” value [4, 12] of the same compound?
A: 1.86 ± 0.42%

Q: And the “Percentage of Dose, Media” value [4, 13]?
A: 0.56 ± 0.07%

Q: What about the “Percent of Dose, Media” value [5, 14] of the same compound?
A: 0.30 ± 0.05%

Q: And the “Percent of Dose, Cells” value ([5]; −DEDTCA)?
A: 0.02 ^ %

Q: What about the “Percent of Dose, Media” value ([5]; −DEDTCA) of the same compound?
A: 0.50 ± 0.03%

Q: And the “LDH release (marker of cytotoxicity)” value [6]?
A: did not significantly increase LDH release

Q: What about the “nephrotoxic potential among the metabolites tested” value [6] of the same compound?
A: not cytotoxic

Q: Which results are given for `N[C@@H](CCC(=O)N[C@@H](CS)C(=O)NCC(=O)O)C(=O)O` [glutathione]?
A: effect of pretreatment on 3,5-DCPHA-induced cytotoxicity (LDH release) [8]: fully protected; effect of pretreatment on 3,5-DCNB-induced cytotoxicity (LDH release) [7]: significantly attenuated

Q: What does the source list for `O=C1O[C@H]([C@@H](O)CO)C(O)=C1O` [ascorbate]?
A: effect of pretreatment on 3,5-DCPHA-induced cytotoxicity (LDH release) [8]: not effective at reducing 3,5-DCPHA cytotoxicity; effect of pretreatment on 3,5-DCNB-induced cytotoxicity (LDH release) [7]: significantly attenuated

Q: With `NNC(=O)c1ccncc1` [isoniazid] as the compound, how does the “effect of inhibitor pretreatment on 3,5-DCA cytotoxicity” value [11] read?
A: had no effect on 3,5-DCA cytotoxicity

Q: For `CCCCCCCCN` [n-octylamine], which “effect of pretreatment on 3,5-DCNB-induced cytotoxicity (LDH release)” value [7] is on record?
A: significantly attenuated

Q: Which “detection as 3,5-DCA metabolite in media and cells” value [5] does the source give for `ONc1cc(Cl)cc(Cl)c1` [3,5-DCPHA] here?
A: no 2-A-4,6-DCP, 4-A-2,6-DCP or 3,5-DCPHA detected

Q: And the “nephrotoxic potential among the metabolites tested” value [6]?
A: most potent nephrotoxicant

Q: What about the “concentration giving significant increase in LDH release” value ([6]; 60 min exposure) of the same compound?
A: ≥ 250 µM

Q: And the “concentration giving significant increase in LDH release” value ([6]; 90 min exposure)?
A: ≥ 250 µM

Q: What does the source list for `Nc1cc(Cl)cc(Cl)c1O` [2-A-4,6-DCP, 2-amino-4,6-dichlorophenol]?
A: free aminochlorophenol after arylsulfatase or β-glucuronidase treatment of media or cell lysates [4, 15]: did not reveal any free 2-A-4,6-DCP or 4-A-2,6-DCP; detection as 3,5-DCA metabolite in media and cells [5]: no 2-A-4,6-DCP, 4-A-2,6-DCP or 3,5-DCPHA detected; LDH release (marker of cytotoxicity) [6]: did not result in significant increases in LDH release; nephrotoxic potential among the metabolites tested [6]: not cytotoxic
